The values below come from US20110070258A1, “METHOD OF SLOWING THE AGING PROCESS BY ACTIVATING SIRTUIN ENZYMES” (Polifenoles Naturales, S.L., priority 2009, published 2011).

One assay relates to Sirt1. Briefly: Sirt1 expression by Western Blot in differentiated 3T3-L1 adipocytes. It counts as cell-based, mouse. The procedure:
The effect of fucoxanthin/punicic acid mixtures on Sirt1 expression in murine cells was studied. Mouse 3T3-L1 pre-adipocytes purchased from the American Type Culture Collection (Rockville, Md.) were grown in Dubecco's modified Eagle's medium (DMEM) (Gibco BRL, Grand Island, N.Y.) supplemented with 2 mM glutamine (GIBCO BRL), 1% penicillin/streptomycin (10000 units of penicillin/mL and 10 mg streptomycin/mL) and 10% fetal bovine serum at 37° C. under a humidified 5% CO2 atmosphere. For differentiation of 3T3-L1 pre-adipocytes, cells were seeded into 6-well culture plates (2×10^4/mL) and cultured as described above. […] The fucoxanthin extract used in this study of Sirt1 expression in murine cells was an extract of the complete plant of Undaria […]. The extract contains 0.8% by weight fucoxanthin and 30% by weight marine vegetable oil. The fucoxanthin extract used may further contain ≦10.0 wt. % palm oil. The pomegranate seed oil used in this study contains 70 wt. % punicic acid, and is an extract of the seeds of the Punica granatum plant. […], the fucoxanthin/punicic acid mixture used in this study, contains 50 wt. % of the fucoxanthin extract, and 50 wt. % of the pomegranate seed oil. […] The total proteins are measured by Bio-Rad Protein Assay (Bio-Rad Laboratories, Munich, Germany). […]
(In general: A western blot detects proteins with antibodies after separation by electrophoresis.)

Assay [1] is described as follows: Energy expenditure by indirect calorimetry in obese subjects (dose-response clinical trial). Type of assay: in vivo, human. The following applies: for Energy Expenditure, Baseline: n = 4; for Energy Expenditure, Baseline / Energy Expenditure, 2 weeks / Energy Expenditure, 5 weeks / Energy Expenditure, 10 weeks / Energy Expenditure, 16 weeks / Total Energy Expenditure, to (16 weeks) / Total Energy Expenditure, From (baseline) / Change in Total Energy Expenditure, Net: NAFLD; for Change in Total Energy Expenditure, Net: baseline to 16 weeks. Here is the method: Energy expenditure rate (EER) was measured in patients by indirect calorimetry. Oxygen was measured with an electrochemical oxygen sensor, and carbon dioxide was measured with an infrared carbon dioxide sensor (Ametec Carbon Dioxide Analyzer). Before each measurement, the instrument was calibrated with a mixture of O2 and CO2 gases. Rates of oxygen consumption (O2) and carbon dioxide production (CO2) were calculated and printed out at 1-min intervals. Energy expenditure was derived from O2 and CO2 values.
Obese subjects diagnosed with NAFLD and with apparently healthy liver (HL) were matched in pairs based on age, body weight and body fat mass and were randomly divided into Experimental NAFLD group (n=36), Placebo NAFLD (n=36), Experimental HL (n=19) and Placebo-HL group (n=19). Subjects were randomly assigned, in equal numbers, to the phytomedicine experimental groups and the Placebo control group, using the Simple Randomization Procedure. Their daily dietary intake was restricted to 1800±100 kcals, of which 50±5% was in the form of carbohydrates, 30±5% from protein, and 20±5% from fat. Subjects were also instructed to consume all the foods and beverages designated by dieticians and provided by the Institute, and to eat no other food or high calories beverages. […] During the clinical phase, subjects were required to visit a designated hospital three times a week for physiological and biochemical analysis. Institute provided all foods and beverages by designated dieticians and labeled as B, L, and D for breakfast, lunch and dinner, respectively.
The brown marine vegetable extract was suspended in 100 mg cold-pressed pomegranate seed oil. The pomegranate seed oil was standardized to contain a minimum of 70% punicic acid, for a total weight of 200 mg/capsule. The content of fucoxanthin in Experimental Sample (Xanthigen) was analyzed using high performance liquid chromatography method, and the fatty acids were analyzed by Gas Chromatography method. The HPLC profile of the brown marine vegetable extract is shown in FIG. 2A, along with an HPLC chromatogram of pure fucoxanthin for comparison in FIG. 2B.
Energy expenditure (EE) and substrate oxidations were measured by indirect calorimetry as described previously (Ranneries et al., 1998). Oxygen was measured with an electrochemical oxygen sensor, and carbon dioxide was measured by an infrared carbon dioxide sensor (Ametec Carbon Dioxide Analyzer). Calculations of EE and substrate oxidation rates were performed as previously described (Astrup et al., 1991). Protein oxidation was assumed to be constant and amounting to 15% of EE. […] The reliability was assessed by the coefficient of variation on resting energy expenditure repeated every week.

Regarding `CCCC\C=C/C=C/C=C\CCCCCCCC(=O)O` [punicic acid, 9-cis, 11-trans conjugated linolenic acid (9c,11t,13c-CLNA)], the “Effect on Sirt1 protein levels / expression” value with Sirt1 is “suppresses Sirt1 expression”.

As for `CC(=O)O[C@H]1CC(C)(C)C(=C=C/C(C)=C/C=C/C(C)=C/C=C/C=C(C)/C=C/C=C(\C)C(=O)C[C@@]23O[C@]2(C)C[C@@H](O)CC3(C)C)[C@](C)(O)C1` [Fucoxanthin, fucoxanthin], in assay [1] (25 mg fucoxanthin alone), the “increase in daily energy expenditure rate” value came out at 1152 ± 290 kJ/day. The “Energy Expenditure, Baseline” value came out at 5.82 ± 0.18 kJ/min in assay [1] (Fucoxanthin 10 mg per day), 5.85 ± 0.27 kJ/min in assay [1] (Fucoxanthin 15 mg per day), 5.92 ± 0.16 kJ/min in assay [1] (Fucoxanthin 25 mg per day) and 6.04 ± 0.24 kJ/min in assay [1] (Fucoxanthin 50 mg per day). Also, the “Energy Expenditure, 2 weeks” value in assay [1] (Fucoxanthin 10 mg per day) is 5.69 ± 0.21 kJ/min; in assay [1] (Fucoxanthin 15 mg per day), 5.89 ± 0.14 kJ/min; in assay [1] (Fucoxanthin 25 mg per day), 6.02 ± 0.23 kJ/min; in assay [1] (Fucoxanthin 50 mg per day), 5.91 ± 0.31 kJ/min. Also, the “Energy Expenditure, 5 weeks” value in assay [1] (Fucoxanthin 10 mg per day) came out at 5.93 ± 0.15 kJ/min; in assay [1] (Fucoxanthin 15 mg per day), 5.98 ± 0.17 kJ/min; in assay [1] (Fucoxanthin 25 mg per day), 5.92 ± 0.27 kJ/min; in assay [1] (Fucoxanthin 50 mg per day), 6.32 ± 0.22 kJ/min. The “Energy Expenditure, 10 weeks” value in assay [1] (Fucoxanthin 10 mg per day) was 5.69 ± 0.21 kJ/min; in assay [1] (Fucoxanthin 15 mg per day) it was 6.11 ± 0.21 kJ/min; in assay [1] (Fucoxanthin 25 mg per day), 6.29 ± 0.31 kJ/min; in assay [1] (Fucoxanthin 50 mg per day) it was 6.92 ± 0.31 kJ/min. Moreover, the “Energy Expenditure, 16 weeks” value in assay [1] (Fucoxanthin 10 mg per day) was found to be 5.98 ± 0.18 kJ/min; in assay [1] (Fucoxanthin 15 mg per day), 6.39 ± 0.17 kJ/min; in assay [1] (Fucoxanthin 25 mg per day), 6.72 ± 0.22 kJ/min; in assay [1] (Fucoxanthin 50 mg per day), 7.37 ± 0.35 kJ/min. In addition, the “Total Energy Expenditure, to (16 weeks)” value in assay [1] (Fucoxanthin 10 mg per day) amounted to 8611 kJ/24 h; in assay [1] (Fucoxanthin 15 mg per day), 9202 kJ/24 h; in assay [1] (Fucoxanthin 25 mg per day) it was 9677 kJ/24 h; in assay [1] (Fucoxanthin 50 mg per day), 10613 kJ/24 h. Also, the “Total Energy Expenditure, From (baseline)” value came to 8381 kJ/24 h in assay [1] (Fucoxanthin 10 mg per day), 8424 kJ/24 h in assay [1] (Fucoxanthin 15 mg per day), 8525 kJ/24 h in assay [1] (Fucoxanthin 25 mg per day) and 8698 kJ/24 h in assay [1] (Fucoxanthin 50 mg per day). Moreover, the “Change in Total Energy Expenditure, Net” value in assay [1] (Fucoxanthin 10 mg per day, NS vs placebo) is given as “Net 230 ± 147 kJ/24 h”; in assay [1] (Fucoxanthin 15 mg per day, p < 0.05 vs placebo), “Net 778 ± 260 kJ/24 h”; in assay [1] (Fucoxanthin 25 mg per day, p < 0.05 vs placebo) it was “Net 1152 ± 290 kJ/24 h”; in assay [1] (Fucoxanthin 50 mg per day, p < 0.001 vs placebo), “Net 1915 ± 246 kJ/24 h”. Also, the “EER” value in assay [1] (fucoxanthin dose of 1.6 mg per se) is given as “not effective per se”. Also, in assay [1] (obese subjects, stand alone), the “minimum effective dose (increase of EER), stand alone” value was found to be 2.4 mg.
